What all share (type): in vivo
The test system of assay [1] is Ctenocephalides felis. Nature of the assay: Ctenocephalides felis oral test. The settings on record: application rate 100 ppm in citrated cattle blood, adult cat fleas, after 2 days. The procedure: Ctenocephalides felis—Oral Test Solvent: dimethyl sulfoxide To produce a suitable active ingredient formulation, 10 mg of active ingredient are mixed with 0.5 ml of dimethyl sulfoxide. Dilution with citrated cattle blood gives the desired concentration. About 20 unfed adult cat fleas (Ctenocephalides felis) are placed into a chamber which is closed at the top and bottom with gauze. A metal cylinder whose bottom end is closed with parafilm is placed onto the chamber. The cylinder contains the blood/active ingredient formulation, which can be imbibed by the fleas through the parafilm membrane. After 2 days, the kill in % is determined. 100% means that all of the fleas have been killed; 0% means that none of the fleas have been killed.

A further assay relates to Phaedon cochleariae. Put plainly: Phaedon cochleariae spray test. The settings on record: foliar, 168 h, application rate 100 g/ha, spray on Chinese cabbage leaf discs, larvae, after 7 days, read-out: efficacy in %. The method, then: Phaedon cochleariae—Spray Test
(§1) To produce a suitable active ingredient formulation, 1 part by weight of active ingredient is dissolved with the specified parts by weight of solvent and made up to the desired concentration with water containing an emulsifier concentration of 1000 ppm. To produce further test concentrations, the formulation is diluted with emulsifier-containing water.
Discs of Chinese cabbage leaves (Brassica pekinensis) are sprayed with an active ingredient formulation of the desired concentration and, after drying, populated with larvae of the mustard beetle (Phaedon cochleariae).
After 7 days, the efficacy in % is determined. 100% means that all the beetle larvae have been killed; 0% means that no beetle larvae have been killed.

The subject of the next assay is Tetranychus urticae. Nature of the assay: Tetranychus urticae spray test, OP-resistant. The settings on record: application rate 100 g/ha, spray on bean leaf discs, all stages, after 6 days. The procedure:
Tetranychus urticae—Spray Test, OP-Resistant
as §1
Discs of bean leaves (Phaseolus vulgaris) infested with all stages of the greenhouse red spider mite (Tetranychus urticae) are sprayed with an active ingredient formulation of the desired concentration.
After 6 days, the efficacy in % is determined. 100% means that all the spider mites have been killed; 0% means that no spider mites have been killed.

The subject of another assay is Musca domestica. Put plainly: Musca domestica test. The settings on record: adult houseflies, after 2 days. The method, then:
Musca domestica Test Solvent: dimethyl sulfoxide To produce a suitable active ingredient formulation, 10 mg of active ingredient are mixed with 0.5 ml of dimethyl sulfoxide, and the concentrate is diluted with water to the desired concentration. Vessels containing a sponge treated with sugar solution and the active ingredient formulation of the desired concentration are populated with 10 adult houseflies (Musca domestica). After 2 days, the kill in % is determined. 100% means that all of the flies have been killed; 0% means that none of the flies have been killed.

The test system of assay [2] is Myzus persicae. Nature of the assay: Myzus persicae oral test. The settings on record: 120 h, after 5 days, read-out: efficacy in %; for pest or weed control at 4 ppm: application rate 4 ppm; for pest or weed control at 0.8 ppm: application rate 0.8 ppm. The method, then: Myzus persicae—Oral Test [table] To produce a suitable active ingredient formulation, 1 part by weight of active ingredient is dissolved with the stated parts by weight of solvent and made up to the desired concentration with water. 50 μl of the active ingredient formulationare transferred into microtitre plates and made up to a final volume of 200 μl with 150 μl of IPL41 insect medium (33% +15% sugar). Subsequently, the plates are sealed with parafilm, which a mixed population of green peach aphids (Myzus persicae) within a second microtitre plate is able to puncture and imbibe the solution. After 5 days, the efficacy in % is determined. 100% means that all the aphids have been killed; 0% means that no aphids have been killed.

Assay [3] has as its system Ctenocephalides felis. Put plainly: Ctenocephalides felis in vitro contact test with adult cat fleas. The following applies: application rate 5 μg/cm^2 (=500 g/ha), after 48 h. The procedure: Ctenocephalides felis—In Vitro Contact Tests with Adult Cat Fleas For the coating of the test tubes, 9 mg of active ingredient are first dissolved in 1 ml of acetone p.a. and then diluted to the desired concentration with acetone p.a. 250 μl of the solution are distributed homogeneously on the inner walls and the base of a 25 ml glass tube by turning and rocking on an orbital shaker (rocking rotation at 30 rpm for 2 h). With 900 ppm of active ingredient solution and internal surface area 44.7 cm^2, given homogeneous distribution, an area-based dose of 5 μg/cm^2 is achieved. After the solvent has evaporated off, the tubes are populated with 5-10 adult cat fleas (Ctenocephalides felis), sealed with a perforated plastic lid and incubated in a horizontal position at room temperature and ambient humidity. After 48 h, efficacy is determined. To this end, the tubes are stood upright and the fleas are knocked to the base of the tube. Fleas which remain motionless at the base or move in an uncoordinated manner are considered to be dead or moribund. […] 100% efficacy means that all the fleas were dead or moribund. 0% efficacy means that no fleas were harmed.

A further assay concerns Lucilia cuprina. Nature of the assay: Lucilia cuprina test. The settings on record: application rate 100 ppm, L1 larvae, after 2 days. The method, then: Lucilia cuprina Test Solvent: dimethyl sulfoxide To produce a suitable active ingredient formulation, 10 mg of active ingredient are mixed with 0.5 ml of dimethyl sulfoxide, and the concentrate is diluted with water to the desired concentration. About 20 L1 larvae of the Australian sheep blowfly (Lucilia cuprina) are transferred into a test vessel containing minced horsemeat and the active ingredient formulation of the desired concentration. After 2 days, the kill in % is determined. 100% means that all the larvae have been killed; 0% means that no larvae have been killed.

The next assay relates to Spodoptera frugiperda. Nature of the assay: Spodoptera frugiperda spray test. The following applies: application rate 100 g/ha, spray on maize leaf discs, caterpillars, after 7 days. The procedure:
Spodoptera frugiperda—Spray Test [table] To produce a suitable active ingredient formulation, 1 part by weight of active ingredient is dissolved with the specified parts by weight of solvent and made up to the desired concentration with water containing an emulsifier concentration of 1000 ppm. To produce further test concentrations, the formulation is diluted with emulsifier-containing water. Leaf discs of maize (Zea mays) are sprayed with an active ingredient formulation of the desired concentration and, after drying, populated with caterpillars of the armyworm (Spodoptera frugiperda). After 7 days, the efficacy in % is determined. 100% means that all the caterpillars have been killed; 0% means that no caterpillar has been killed.

Assay [4] deals with Myzus persicae. Put plainly: Myzus persicae spray test. The following applies: foliar, 120 h, application rate 100 g/ha, spray on Chinese cabbage leaf discs, after 5 days, read-out: efficacy in %. The procedure:
Myzus persicae—Spray Test [table] To produce a suitable active ingredient formulation, 1 part by weight of active ingredient is dissolved with the specified parts by weight of solvent and made up to the desired concentration with water containing an emulsifier concentration of 1000 ppm. To produce further test concentrations, the formulation is diluted with emulsifier-containing water. Discs of Chinese cabbage leaves (Brassica pekinensis) infested by all stages of the green peach aphid (Myzus persicae) are sprayed with an active ingredient formulation of the desired concentration. After 5 days, the efficacy in % is determined. 100% means that all the aphids have been killed; 0% means that no aphids have been killed.

Take `CCSc1c(-c2nc3cc(C(F)(F)F)cnc3n2C)nc(C2CC2)n1C` [Example I-1, 2-[2-Cyclopropyl-5-(ethylsulfanyl)-1-methyl-1H-imidazol-4-yl]-3-methyl-6-(trifluoromethyl)-3H-imidazo[4,5-b]pyridine]: the “efficacy (kill in %)” value with Ctenocephalides felis [1] is listed as 90%; with Musca domestica (application rate 20 ppm), 100%; in the assay on Musca domestica (application rate 100 ppm) it was 100%; in the assay on Lucilia cuprina, 100%. In addition, the pest or weed control at 100 g/ha with Phaedon cochleariae is 100%. In the assay with Tetranychus urticae, this compound had an efficacy in % of 100%. In the assay on Myzus persicae [2], the pest or weed control at 4 ppm came out at 100%. The pest or weed control at 20 ppm in the assay with Myzus persicae [2] (application rate 20 ppm) was determined as 100%. The “efficacy (fleas dead or moribund)” value in the assay with Ctenocephalides felis [3] was 100%.
As to `CCS(=O)(=O)c1c(-c2nc3cc(OC(F)(F)F)cnc3n2C)nc(C2CC2)n1C` [Example I-6], the pest or weed control at 100 g/ha with Phaedon cochleariae and with Myzus persicae [4] was 100% each time. In addition, the efficacy in % in the assay with Spodoptera frugiperda came out at 100%; in the assay with Tetranychus urticae, 90%. Further, in the assay with Myzus persicae [2], the pest or weed control at 0.8 ppm worked out at 100%. In addition, the pest or weed control at 4 ppm in the assay on Myzus persicae [2] came to 100%.
As to `CCS(=O)(=O)c1c(-c2nc3cc([S+]([O-])C(F)(F)F)cnc3n2C)nc(C2CC2)n1C` (stereo not drawn) [Example I-7], the results for the “efficacy (kill in %)” value in the assay with Ctenocephalides felis [1], with Musca domestica (application rate 20 ppm) and with Lucilia cuprina were 100%, 80% and 100%, respectively. Moreover, the pest or weed control at 100 g/ha with Phaedon cochleariae turned out to be 100%; in the assay with Myzus persicae [4] it was 90%. The compound also displayed an efficacy in % in the assay on Spodoptera frugiperda of 100%. In the assay with Myzus persicae [2], the pest or weed control at 0.8 ppm was 100%.
Consider `CCS(=O)(=O)c1c(-c2nc3cc(S(=O)(=O)C(F)(F)F)cnc3n2C)nc(C2CC2)n1C` [Example I-8], for which the “efficacy (kill in %)” value in the assay on Ctenocephalides felis [1] is recorded as 100%; in the assay on Musca domestica (application rate 20 ppm), 80%; in the assay on Lucilia cuprina it was 100%. Further, the pest or weed control at 100 g/ha in the assay with Phaedon cochleariae was found to be 100%. The efficacy in % in the assay on Spodoptera frugiperda is given as 100%. In the assay on Myzus persicae [2], the pest or weed control at 0.8 ppm came to 100%. Also, the pest or weed control at 4 ppm in the assay on Myzus persicae [2] was 100%.
For the compound `CCS(=O)(=O)c1c(-c2nc3cc(C(F)(F)F)ncc3n2C)nc(C2CC2)n1C` [Example I-9], in the assay on Phaedon cochleariae, the pest or weed control at 100 g/ha came to 100%. In the assay on Myzus persicae [2], the pest or weed control at 0.8 ppm amounted to 100% and the pest or weed control at 4 ppm came out at 100%.
For the compound `CCn1c(C2CC2)nc(-c2nc3cc(C(F)(F)F)ncc3n2C)c1S(=O)(=O)CC` [Example I-10], the pest or weed control at 100 g/ha in the assay on Phaedon cochleariae worked out at 100%. The efficacy in % with Spodoptera frugiperda is given as 83%. Moreover, in the assay with Myzus persicae [2], the pest or weed control at 0.8 ppm was determined as 100% and the pest or weed control at 4 ppm is 100%.
On to `CCS(=O)(=O)c1c(-c2nc3cc(C(F)(F)F)ncc3n2C)nc(C2CC2)n1C(C)C` [Example I-11], for which the “efficacy (kill in %)” value worked out at 90% with Ctenocephalides felis [1] and 100% in the assay on Lucilia cuprina. The pest or weed control at 100 g/ha in the assay on Phaedon cochleariae came out at 100%; with Myzus persicae [4] it was 90%. In addition, the pest or weed control at 0.8 ppm in the assay on Myzus persicae [2] is 100%. For the same compound, the pest or weed control at 4 ppm in the assay with Myzus persicae [2] amounted to 100%.
`CCS(=O)(=O)c1c(-c2nc3cc(SC(F)(F)F)cnc3n2C)nc(C2CC2)n1C` [Example I-12]: the pest or weed control at 100 g/ha with Phaedon cochleariae came to 100%. The same compound came in with an efficacy in % in the assay on Spodoptera frugiperda of 83%. Also, in the assay on Myzus persicae [2], the pest or weed control at 0.8 ppm was 100% and the pest or weed control at 4 ppm turned out to be 100%. In addition, the pest or weed control at 100 g/ha with Myzus persicae [4] worked out at 100%.
As to `CCS(=O)(=O)c1c(-c2nc3cc(C(F)(F)F)ncc3n2C)nc(C2CCCCC2)n1C` [Example I-13, 2-[2-Cyclohexyl-5-(ethylsulfonyl)-1-methyl-1H-imidazol-4-yl]-3-methyl-6-(trifluoromethyl)-3H-imidazo[4,5-c]pyridine], in the assay on Myzus persicae [2], the pest or weed control at 4 ppm amounted to 100%.
For the compound `CCS(=O)(=O)c1c(-c2nc3cc(C(F)(F)F)ncc3n2C)nc([C@H]2CC[C@@H](C(F)(F)F)CC2)n1C` [Example I-15], the pest or weed control at 100 g/ha with Phaedon cochleariae was determined as 100%; in the assay on Myzus persicae [4] it was 90%. In the assay on Myzus persicae [2], the pest or weed control at 0.8 ppm is 90%. The pest or weed control at 4 ppm with Myzus persicae [2] is 100%.
As to `CCS(=O)(=O)c1c(-c2nc3cc(C(F)(F)F)ncc3n2C)nc([C@H]2CC[C@@H](C)CC2)n1C` [Example I-16], the efficacy in % with Tetranychus urticae was 90%. In the assay with Myzus persicae [2], the pest or weed control at 0.8 ppm stood at 90% and the pest or weed control at 4 ppm is 90%. The pest or weed control at 100 g/ha in the assay with Myzus persicae [4] came to 90%.
As to `CCS(=O)(=O)c1c(-c2nc3cc(C(F)(F)F)nnc3n2C)nc(C2CC2)n1C` [Example I-17], in the assay with Phaedon cochleariae, the pest or weed control at 100 g/ha was determined as 100%. In addition, in the assay on Myzus persicae [2], the pest or weed control at 0.8 ppm was determined as 100% and the pest or weed control at 4 ppm was 100%. The pest or weed control at 100 g/ha with Myzus persicae [4] was 90%.
